Laboratory results reported in patent US8617528B2, “Compositions and methods for stabilizing ingredients using 2,4-pentanedione compounds” (Sytheon Ltd., priority 2010, dated 2013).
Blank lines part the entries; values can stand above or below the molecule they belong to.

What was measured:
[1] = Photostabilization of avobenzone in ethanol test solution under sun simulator
Description: A comparative photostabilization study was conducted comparing the photostabilization efficacy of the compound of Example 1, HSS, and the compound of Example 3 (Compound 3) with Octocrylene and Oxynex® ST in the stabilization of avobenzone. Samples for evaluation were prepared as follows:
Solutions in ethanol are prepared at respective concentrations of photosensitive materials and photostabilizer (typically 1:1 to 1:5 weight ratio). A base test solution of 3% Avobenzone+5% Octyl salicylate +10% Homoslate in Ethanol (the “Test Solution”) was made. Seven additional solutions were prepared by adding 2% Synoxyl™ HSS, 4% Synoxyl™ HSS, 4% Compound 3, 2% Octocrylene, 4% Octocrylene, 2% Oxynex® ST, and 2% dehydrozingerone methyl ether, respectively, to seven aliquots of the Test Solution.
(§1) Samples of each solution were prepared as ultrathin films between two quartz plates so as to obtain a minimum of 90% light transmission over the entire spectrum range of non absorbing chromophores. For example, ingredients which absorb only in the UV range were tested in formulation to obtain a minimum of 90% light transmission over the visible range. Each sample was then irradiated under sun simulator (754 W/m^2, 2 MED/h, UV dose from 20 to 100 Joules/cm^2) for various durations and light absorption spectra recorded for each sample at given times. The maximal absorption band λmax of each solution was determined before and after irradiation. The amount of the photosensitive materials remaining in solution after irradiation was calculated as the ratio of their two maximal absorptions.

[2] = solar simulator, total energy 100 mJ/cm^2; cited from earlier work
[3] = Hydrolytic stability of HSS in water at pH 7, 8, 9 (GC purity of recovered solid); format: physicochemical
Description: A series of hydrolytic stability tests were conducted on the compound of Example 1, HSS, as follows
pH7: 2.5 g of samples of HSS were placed in 100 ml round bottom flasks and 50 ml of double distilled water (pH 7) added to each. […] Thereafter each sample was filtered and the solids dried.
pH 8: 2.5 g of samples of HSS were placed in 100 ml round bottom flasks and 50 ml of double distilled water which had been adjusted to pH 8 using 0.01N NaOH solution added to each. […] Thereafter each sample was filtered and the solids dried.
pH 9: 2.5 g of samples of HSS were placed in 100 ml round bottom flasks and 50 ml of double distilled water which had been adjusted to pH 9 using 0.1N NaOH solution added to each. […] Thereafter each sample was filtered and the solids dried.
Each dried sample was analyzed by gas chromatography using an HP-5, 15 m, 0.53 mm id, capillary column with following set-up and test parameters: • Injection temperature: 250° C. • Oven temp: 50° C. (2 min), 10° C. to 260° C. (20 min) • Detector: FID • Detector temp: 260° C. • Carrier gas: Nitrogen • Column flow: 3.0 ml/min • Split ratio: 5:1 • Injection Volume: 1 micro liter • Sample concentration: 100 mg/ml in Methanol
The initial purity of the HSS used to make Samples A through F was 98.9% as determined by the aforementioned GC procedure.

[4] = Photostability of sunscreen formulation under sun simulator
Description: as §1
Three samples of this were taken for photostability testing according to the method of Example 6 above. The first sample, the Control, was not modified whereas the two remaining samples were modified by incorporating therein 2% of the compound of Example 1, HSS, and 4% octocrylene, respectively. The three formulations were prepared by first preparing each of Phase A1 and A2 and then dispersing Phase A2 in Phase A1 with agitation and heating to 75 C. Phase B was prepared and heated to 75° C. Phase B is then combined with the Phase A mixture with continuous stirring. The combination was subsequently homogenized for 2-3 minutes, and the batch cooled to 45° C. Phases C and were separately prepared and then mixed with the cooled batch until uniform.
As with Example 6, each was exposed to irradiation for various durations and the photostability tested. As evidenced from the results shown in Table 7, the stabilizer compound of the present invention performed markedly better than that of the conventional photostabilizer in the formulated product.

[5] = Photostabilization of water-soluble dyes under solar simulated light; conditions: 0.05% stabilizer, FD&C Yellow No 5 or Red No 40, solar simulated light ~40 hours
Description: The stabilizer compound Synoxyl™ HSS according to Example 1 was added to the two dye compositions of Table 9, one containing Yellow No 5 and the other Red No 40, in order to evaluate its ability to reduce the extent of color fading resulting from their exposure to solar simulated light. In both formulations without the Synoxyl™ HSS, visible and marked color fading was noted following just 2 hours of light exposure.

[6] = Stability of HSS in the presence of iron and copper ions (UV absorbance at 319 nm); format: physicochemical; conditions: acetate buffer pH 6.5/ethanol, room temperature
Description: A base buffer solution was prepared by dissolving 13.608 g of sodium acetate in 1000 ml water and then adjusting the pH to 6.5 with acetic acid to form a 0.1 M acetate solution and then combining 75 parts by weight of this solution with 25 parts by weight ethanol.
A copper sulfate solution was prepared by dissolving 24.968 mg of copper sulfate (CuSO4.5H2O) in 100 ml of the base buffer solution.
A ferric sulfate solution was prepared by dissolving 16.22 mg of […] in 100 ml of the base buffer solution.
Finally a 100 μM test solution of HSS was prepared by dissolving 27.8 mg of HSS in 10 ml of the base buffer solution and then diluting 0.1 ml of this solution to 10 ml with additional base buffer solution.
Two test solutions were prepared as follows:
Copper Stability: 0.1 ml of the 100 μM solution of HSS was combined with 0.1 ml of the 10 μM CuSO4 solution in a 10 ml volumetric flask and additional base buffer solution added to make up to volume (to 10 ml). […]
The two test solutions and a sample of the HSS solution were then evaluated to assess what, if any, auto-oxidation of the HSS occurred in the presence of Cu^2+ and Fe^3+ ions. Stability or instability was evaluated by monitoring the absorbance at 319 nm for HSS at room temperature using a Shimadzu spectrophotometer.

[7] = Stabilization of colored shampoo under fluorescent light (Delta E); conditions: 0.4 g HSS in 120 g shampoo, ambient temperature, 4 weeks
Description: The stabilizer compound according to Example 1, Synoxyl™ HSS, was added to a commercial shampoo formulation in order to evaluate its ability to reduce the amount of dye fading following exposure to fluorescent lighting. The sample was prepared by dissolving 0.4 g of HSS in 5 ml of ethanol and then adding the solution to 120 g of Suave® Natural Fresh Mountain Strawberry Shampoo with agitation and agitated for 15 minutes. A sample of the unmodified shampoo and the modified shampoo are then placed into 20 ml glass scintillation vials. Both sets of vials were weathered under fluorescent light aging at ambient temperature for 4 weeks. The L*a*b coordinates before and after exposure are measured using X-Rite 938 Spectro-densitometer. Color change is expressed as Delta E (ΔE) which is calculated by the formula: ΔE=[(ΔL*)^2+(Δa*)^2+(Δb*)^2]^1/2
Following the 4 week exposure the change in color, Delta E, was 21.6 for the unmodified shampoo and 12.3 for the modified shampoo.

[8] = cited from earlier work
[9] = 4% stabilizer in Test Solution (3% Avobenzone), UV dose 0 Joules/cm^2
[10] = 4% stabilizer in Test Solution (3% Avobenzone), UV dose 20 Joules/cm^2
[11] = 4% stabilizer in Test Solution (3% Avobenzone), UV dose 40 Joules/cm^2
[12] = 4% stabilizer in Test Solution (3% Avobenzone), UV dose 60 Joules/cm^2
[13] = 4% stabilizer in Test Solution (3% Avobenzone), UV dose 80 Joules/cm^2
[14] = 4% stabilizer in Test Solution (3% Avobenzone), UV dose 100 Joules/cm^2
[15] = 2% stabilizer in Test Solution (3% Avobenzone), UV dose 0 Joules/cm^2
[16] = 2% stabilizer in Test Solution (3% Avobenzone), UV dose 20 Joules/cm^2
[17] = 2% stabilizer in Test Solution (3% Avobenzone), UV dose 40 Joules/cm^2
[18] = 2% stabilizer in Test Solution (3% Avobenzone), UV dose 60 Joules/cm^2
[19] = 2% stabilizer in Test Solution (3% Avobenzone), UV dose 80 Joules/cm^2
[20] = 2% stabilizer in Test Solution (3% Avobenzone), UV dose 100 Joules/cm^2

Structure (SMILES): Cc1ccc(C(C)C)cc2c(C)ccc1-2 [Guaiazulene]
- lost due to degradation [2]: ~90%

Structure (SMILES): CCCCC(CC)COC(=O)C(C#N)=C(c1ccccc1)c1ccccc1 (stereo not drawn) [Octocrylene]
- % remaining [1, 15]: 100%
- % remaining [1, 16]: 92%
- % remaining [1, 17]: 80%
- % remaining [1, 18]: 68%
- % remaining [1, 19]: 64%
- % remaining [1, 20]: 58%
- % remaining [1, 9]: 100%
- % remaining [1, 10]: 94%
- % remaining [1, 11]: 83%
- % remaining [1, 12]: 73%
- % remaining [1, 13]: 67%
- % remaining [1, 14]: 60%
- photostability of sunscreen formulation (% remaining) ([4]; 4% stabilizer in sunscreen with 2% butyl methoxydibenzoylmethane, UV dose 0 Joules/cm^2): 100%
- photostability of sunscreen formulation (% remaining) ([4]; 4% stabilizer in sunscreen with 2% butyl methoxydibenzoylmethane, UV dose 20 Joules/cm^2): 94%
- photostability of sunscreen formulation (% remaining) ([4]; 4% stabilizer in sunscreen with 2% butyl methoxydibenzoylmethane, UV dose 40 Joules/cm^2): 89%
- photostability of sunscreen formulation (% remaining) ([4]; 4% stabilizer in sunscreen with 2% butyl methoxydibenzoylmethane, UV dose 60 Joules/cm^2): 82%

Structure (SMILES): CC1=C(/C=C/C(C)=C/C=C/C(C)=C\C(=O)O)C(C)(C)CCC1 [isotretinoin, 13-cis-retinoic acid]
- solubility in diethylhexyl diester of 2,6-naphthalene-dicarboxylic acid [8]: approximately 6.7 mg/ml

Structure (SMILES): CC1=C(/C=C/C(C)=C/C=C/C(C)=C/C(=O)O)C(C)(C)CCC1 [tretinoin, all-trans-retinoic acid]
- solubility in diethylhexyl diester of 2,6-naphthalene-dicarboxylic acid [8]: approximately 5.6 mg/ml
- solubility in water ([8]; water): practically insoluble

The next lines start with results.

- % remaining [1, 9]: 100%
- % remaining [1, 10]: 96%
- % remaining [1, 11]: 90%
- % remaining [1, 12]: 80%
- % remaining [1, 13]: 73%
- % remaining [1, 14]: 68%
- melting point: 82 to 84 °C
Structure (SMILES): COc1ccc(C=C(C(C)=O)C(C)=O)cc1 [Compound 3, 3-(4-methoxybenzylidene)-2,4-pentanedione]

- % remaining [1, 15]: 100%
- % remaining [1, 16]: 59%
- % remaining [1, 17]: 26%
Structure (SMILES): COc1ccc(/C=C/C(C)=O)cc1OC [Dehydrozingerone methyl ether, Dehydrozingerone methylether]
- stabilization of photosensitive compounds ([1]; summary statement): fails to stabilize photosensitive compounds

- % remaining [1, 15]: 100%
- % remaining [1, 16]: 96%
- % remaining [1, 17]: 90%
- % remaining [1, 18]: 84%
- % remaining [1, 19]: 77%
- % remaining [1, 20]: 70%
- % remaining [1, 9]: 100%
- % remaining [1, 10]: 96%
- % remaining [1, 11]: 90%
- % remaining [1, 12]: 84%
- % remaining [1, 13]: 80%
- % remaining [1, 14]: 76%
- hydrolytic stability ([3]; pH 7, 8, and 9 at 40° C. and at 60° C. for at least 8 hrs): stable
- GC purity (Area %) ([3]; pH 7, 40° C., 4 h): 98.9 Area %
- GC purity (Area %) ([3]; pH 7, 40° C., 8 h): 99.1 Area %
- GC purity (Area %) ([3]; pH 7, 60° C., 4 h): 98.6 Area %
- GC purity (Area %) ([3]; pH 7, 60° C., 8 h): 99.0 Area %
- GC purity (Area %) ([3]; pH 7, RT (~27° C.), 4 h): 98.8 Area %
- GC purity (Area %) ([3]; pH 7, RT (~27° C.), 8 h): 99.0 Area %
- GC purity (Area %) ([3]; pH 8, 40° C., 4 h): 98.9 Area %
- GC purity (Area %) ([3]; pH 8, 40° C., 8 h): 99.1 Area %
- GC purity (Area %) ([3]; pH 8, 60° C., 4 h): 99.2 Area %
- GC purity (Area %) ([3]; pH 8, 60° C., 8 h): 99.0 Area %
- GC purity (Area %) ([3]; pH 8, RT (~27° C.), 4 h): 98.7 Area %
- GC purity (Area %) ([3]; pH 8, RT (~27° C.), 8 h): 99.2 Area %
- GC purity (Area %) ([3]; pH 9, 40° C., 4 h): 99.0 Area %
- GC purity (Area %) ([3]; pH 9, 40° C., 8 h): 98.9 Area %
- GC purity (Area %) ([3]; pH 9, 60° C., 4 h): 99.1 Area %
- GC purity (Area %) ([3]; pH 9, 60° C., 8 h): 98.8 Area %
- GC purity (Area %) ([3]; pH 9, RT (~27° C.), 4 h): 98.8 Area %
- GC purity (Area %) ([3]; pH 9, RT (~27° C.), 8 h): 98.8 Area %
- photostability of sunscreen formulation (% remaining) ([4]; 2% stabilizer in sunscreen with 2% butyl methoxydibenzoylmethane, UV dose 0 Joules/cm^2): 100%
- photostability of sunscreen formulation (% remaining) ([4]; 2% stabilizer in sunscreen with 2% butyl methoxydibenzoylmethane, UV dose 20 Joules/cm^2): 96%
- photostability of sunscreen formulation (% remaining) ([4]; 2% stabilizer in sunscreen with 2% butyl methoxydibenzoylmethane, UV dose 40 Joules/cm^2): 92%
- photostability of sunscreen formulation (% remaining) ([4]; 2% stabilizer in sunscreen with 2% butyl methoxydibenzoylmethane, UV dose 60 Joules/cm^2): 88%
Structure (SMILES): COc1cc(C=C(C(C)=O)C(C)=O)cc(OC)c1OC [HSS, 3-(3,4,5-trimethoxybenzylidene)-2,4-pentanedione]
- color fading of dye formulation [5]: failed to manifest color fading
- stability (auto-oxidation) in the presence of iron and copper ions [6]: stable irrespective of the presence of iron and copper ions
- change in color, Delta E [7]: 12.3
